# Assay results taken from patent publication US11673901B2, “Polycyclic compounds as allosteric SHP2 inhibitors” (Revolution Medicines, Inc., priority 2017, dated 2023).
# Target: SHP2 (Homo sapiens (Human), UniProt Q06124)
# Assay: SHP2 allosteric inhibition assay (DiFMUP prompt fluorescence)
# Assay type: biochemical
# Settings: 0.2 nM SHP2 activated with 0.5 μM Activating Peptide 1 or 2; substrate DiFMUP; Table 2, class symbols
# Description: Without wishing to be bound by theory, SHP2 is allosterically activated through binding of bis-tyrosyl-phosphorylated peptides to its Src Homology 2 (SH2) domains. The latter activation step leads to the release of the auto-inhibitory interface of SHP2, which in turn renders the SHP2 protein tyrosine phosphatase (PTP) active and available for substrate recognition and reaction catalysis. The catalytic activity of SHP2 was monitored using the surrogate substrate DiFMUP in a prompt fluorescence assay format.
# The phosphatase reactions were performed at room temperature in 96-well black polystyrene plate, flat bottom, non-binding surface (Corning, Cat #3650) using a final reaction volume of 100 μL and the following assay buffer conditions: 50 mM HEPES, pH 7.2, 100 mM NaCl, 0.5 mM EDTA, 0.05% P-20, 1 mM DTT.
# The inhibition of SHP2 by compounds of the invention (concentrations varying from 0.00005-10 μM) was monitored using an assay in which 0.2 nM of SHP2 was incubated with 0.5 μM of Activating Peptide 1 (sequence: H2N-LN(pY)IDLDLV(dPEG8)LST(pY)ASINFQK-amide) or Activating Peptide 2 (sequence: H2N-LN(pY)AQLWHA(dPEG8)LTI(pY)ATIRRF-amide). After 30-60-minutes incubation at 25° C., the surrogate substrate DiFMUP (Invitrogen, Cat #D6567) was added to the reaction and activity was determined by a kinetic read using a microplate reader (Envision, Perkin-Elmer or Spectramax M5, Molecular Devices). The excitation and emission wavelengths were 340 nm and 450 nm, respectively. Initial rates were determined from a linear fit of the data, and the inhibitor dose response curves were analyzed using normalized IC50 regression curve fitting with control based normalization.
row,IC50 [nM],SMILES
1,≤ 50,"Cc1nc(N2CCC3(CC2)CO[C@@H](C)[C@H]3N)n2ccnc2c1Sc1ccnc(N)c1Cl [Compound 29, (3S,4S)-8-{8-[(2-amino-3-chloropyridin-4-yl)sulfanyl]-7-methylimidazo[1,2-c]pyrimidin-5-yl}-3-methyl-2-oxa-8-azaspiro[4.5]decan-4-amine]"
2,≤ 50,"Cc1nc(N2CCC3(CC2)CO[C@@H](C)[C@H]3N)n2ccnc2c1-c1ccc2cn[nH]c2c1 [Compound 30, (3S,4S)-8-[8-(2H-indazol-6-yl)-7-methylimidazo[1,2-c]pyrimidin-5-yl]-3-methyl-2-oxa-8-azaspiro[4.5]decan-4-amine]"
3,≤ 50,"COc1ccc(-c2c(C)nc(N3CCC4(CC3)CO[C@@H](C)[C@H]4N)n3ccnc23)c(Cl)c1C#N [Compound 31, 3-{5-[(3S,4S)-4-amino-3-methyl-2-oxa-8-azaspiro[4.5]decan-8-yl]-7-methylimidazo[1,2-c]pyrimidin-8-yl}-2-chloro-6-methoxybenzonitrile]"
4,≤ 50,"Cc1nc(N2CCC3(CC2)CO[C@@H](C)[C@H]3N)n2ccnc2c1-c1cccc2nc[nH]c12 [Compound 32, (3S,4S)-8-[8-(1H-1,3-benzodiazol-4-yl)-7-methylimidazo[1,2-c]pyrimidin-5-yl]-3-methyl-2-oxa-8-azaspiro[4.5]decan-4-amine]"
5,≤ 50,"Cc1nc(N2CCC3(CC2)CO[C@@H](C)[C@H]3N)n2ccnc2c1-c1ccc2[nH]cnc2c1 [Compound 33, (3S,4S)-8-[8-(1H-1,3-benzodiazol-6-yl)-7-methylimidazo[1,2-c]pyrimidin-5-yl]-3-methyl-2-oxa-8-azaspiro[4.5]decan-4-amine]"
6,≤ 50,"Cc1nc(N2CCC3(CC2)CO[C@@H](C)[C@H]3N)n2ccnc2c1-c1ccc2c(cnn2C)c1 [Compound 34, (3S,4S)-3-methyl-8-[7-methyl-8-(1-methyl-1H-indazol-5-yl)imidazo[1,2-c]pyrimidin-5-yl]-2-oxa-8-azaspiro[4.5]decan-4-amine]"
7,≤ 50,"Cc1nc(N2CCC3(CC2)CO[C@@H](C)[C@H]3N)n2ccnc2c1-c1cccc2cc[nH]c12 [Compound 35, (3S,4S)-8-[8-(1H-indol-7-yl)-7-methylimidazo[1,2-c]pyrimidin-5-yl]-3-methyl-2-oxa-8-azaspiro[4.5]decan-4-amine]"
8,≤ 50,"Cc1nc(N2CCC3(CC2)CO[C@@H](C)[C@H]3N)n2ccnc2c1-c1cccc2cn[nH]c12 [Compound 36, (3S,4S)-8-[8-(2H-indazol-7-yl)-7-methylimidazo[1,2-c]pyrimidin-5-yl]-3-methyl-2-oxa-8-azaspiro[4.5]decan-4-amine]"
9,≤ 50,"Cc1nc(N2CCC3(CC2)CO[C@@H](C)[C@H]3N)n2ccnc2c1-c1cc(Cl)c2cn[nH]c2c1 [Compound 37, (3S,4S)-8-[8-(4-chloro-2H-indazol-6-yl)-7-methylimidazo[1,2-c]pyrimidin-5-yl]-3-methyl-2-oxa-8-azaspiro[4.5]decan-4-amine]"
10,≤ 50,"Cc1nc(N2CCC3(CC2)CO[C@@H](C)[C@H]3N)n2ccnc2c1-c1cc2[nH]ncc2cc1Cl [Compound 38, (3S,4S)-8-[8-(5-chloro-2H-indazol-6-yl)-7-methylimidazo[1,2-c]pyrimidin-5-yl]-3-methyl-2-oxa-8-azaspiro[4.5]decan-4-amine]"
11,≤ 50,"Cc1nc(N2CCC3(CC2)CO[C@@H](C)[C@H]3N)n2ccnc2c1-c1ccc2[nH]ncc2c1 [Compound 39, (3S,4S)-8-[8-(2H-indazol-5-yl)-7-methylimidazo[1,2-c]pyrimidin-5-yl]-3-methyl-2-oxa-8-azaspiro[4.5]decan-4-amine]"
12,≤ 50,"Cc1nc(N2CCC3(CC2)CO[C@@H](C)[C@H]3N)n2ccnc2c1-c1cc2ccccc2n1C [Compound 40, (3S,4S)-3-methyl-8-[7-methyl-8-(1-methyl-1H-indol-2-yl)imidazo[1,2-c]pyrimidin-5-yl]-2-oxa-8-azaspiro[4.5]decan-4-amine]"
